Read-outs that look alike come from different tables or passages of the source.
What was measured:
[1] = LC-MS/MS detection of mephedrone metabolites in a human urine sample; assay type: in vivo; parameters: key to Detected in urine samples: detected (+); not detected (−); conditions: for detection in human urine sample: achiral LC-MS/MS, after enzymatic workup; for Detected in urine samples: human urine, mephedrone user, only syn- and anti-configurations could be separated
From the text: The biological specimen, human urine, was provided by the Department of Chemical Analytics, Seibersdorf Laboratories GmbH. The sample was taken from a subject postmortem in a fatal case of drug overdose. […] Given this fact, we assumed that also the metabolites would be detectable in sufficient quantity. To evaluate the presence of any metabolites whatsoever in the urine sample we designed an achiral separation protocol for liquid chromatography and we coupled it with triple quadrupole mass spectrometer. The advantage of LC-MS/MS system is that even if two substances have the same retention time, they can still be differentiated by their fragmentation pattern. More in details, the samples for urine analysis were analyzed using a CTC HTS PAL autosampler (CTC Analytics) and a Thermo Surveyor LC system (Thermo) interfaced to a TSQ Quantum Discovery Max triple quadrupole mass spectrometer (Thermo). A C18 security guard cartridge (4 × 2 mm) (Phenomenex) was used for sample clean-up and the analytical HPLC column was a Kinetex 1.7 μm C18 100Å 150 × 2.1 mm (Phenomenex) and Cortecs T3, 2.7 μm C18 120Å 100 × 2.1 mm (Waters). Column selection was performed by a Maylab Mistraswitch column selector (Maylab Analytical Instruments). The solvents were 0.2% formic acid in water (A) and acetonitrile (B). The temperature of the analytical column was maintained at 40°C. The mass spectrometer was equipped with heated electrospray ionization (ESI) source and was operated in positive ionization mode with a spray voltage set at 4500V. The capillary temperature was adjusted to 320°C. The sheath and auxiliary gas (nitrogen) flow rate was 25 and 10 arbitrary units, respectively. The system was operated in selected […] (srm) mode with argon as the collision gas at a pressure of 1.5 mTorr. For the achiral separation, stem solutions were prepared by weighing the reference substances in volumetric flasks and filling them up with MeOH (99.9%; HPLC grade), creating average concentration of 1 mg/ml. Then dilution solutions were prepared as follows: 10 μL of stem solution was filled up to 5 ml MeOH, creating dilution […]. Samples were prepared from dilution solutions by taking out 25 μL and mixing it together with 25 μL of ISP, 50 μL ISS and filled up to 1 ml with Milli-Q water. The final sample solvent was water/MeOH 9/1. For the enzymatic workup, phosphate buffer (1 ml, 0.8M, pH = 7), β-glucuronidase/arylsulfatase (25 μL) and β-glucuronidase (25 μL) were added to the solutions. The solutions were heated at 50°C during 1 h upon which EtOAc (7 ml) was added. The solution was put into shaker for 10min, following centrifugation for 5 min. The organic phase was separated and evaporated into dryness in stream of pressurized nitrogen. The residue was taken up in 150 μL MQ-water/MeOH 9/1 + 0.4% formic acid, heated at 50°C for 5 min and subjected to LC-MS analysis.
If on one hand the synthesis of putative metabolites allows the establishment of structure activity relationships, on the other hand, it provides pure material to evaluate their presence in human urine samples and determine their pharmacological relevance. To determine the presence of any metabolites in the urine sample, we have designed an achiral separation protocol and coupled the liquid chromatography with triple quadrupole mass spectrometer (LCMS/MS). With the LCMS/MS system two substances with the same retention time, can still be differentiated by their fragmentation pattern. Since metabolites carrying a primary alcohol functionality can form glucuronide and sulfate conjugates, we performed an enzymatic workup of the urine sample in order to cleave them. Apart from the parental drug, we detected 4-OH-MMC and 4-MC (nor-meph) which we have both already identified in our previous publication ([Mayer et al., 2019]), and the two previously uncharacterized metabolites 4-COOH-MC and dihydro-4-MC (Figure 6). […]

[2] = ref Olesti et al., 2019, cited from earlier work
[3] = cited from earlier work; for relative abundance: minor metabolites in rats, ref Linhart et al., 2016
[4] = ref Meyer et al., 2010; cited from earlier work
[5] = molecular target: T1, DAT (Homo sapiens, UniProt Q01959); experiment: cell-based
T1 construct: expressed in transfected cells

[6] = molecular target: T2, human NET (Homo sapiens, UniProt P23975); experiment: cell-based; conditions: for pIC50 NET: QSAR data matrix, from IC50 NET
T2 construct: expressed in transfected cells

[7] = molecular target: T1, DAT; experiment: Transporter electrophysiology (whole cell patch clamp), HEK293 cells stably expressing DAT; assay type: cell-based; conditions: compound applied at 30 µM, -60 mV
Description: (§1) Human embryonic kidney 293 cells (HEK293 cells) were cultivated in Dulbecco’s Modified Eagle Medium (DMEM), containing 10% heat-in- activated fetal calf serum (FCS), streptomycin (100 μg x 100 ml−1) and penicillin (100 U × 100 ml−1). Geneticin (50 μg x mL−1) was added to select HEK293 cells stably expressing the human isoforms of DAT, NET and SERT as described earlier ([Mayer et al., 2016a]). Cell lines were maintained in a sub-confluent state in humidified atmosphere (37°C, 5% CO2). For uptake inhibition experiments cells expressing the desired transporter were seeded the days before the experiment (40,000 cells per well) or two days before the experiments (20,000 cells per well) onto poly-D-lysine (PDL) coated 96-well plates 24 h prior to the experiment. In the case of transporter-electrophysiology cells were cultivated in 10 cm dishes and 24 h before the experiments they were detached, and seeded at low density onto PDL-coated 3 cm dishes.
(§2) Transporter electrophysiology was conducted by the means of whole cell patch clamp in HEK293 cells stably expressing DAT or SERT. Substrate-induced currents were recorded under voltage clamp (−60 mV). Cells were continuously superfused with a physiological external solution that contains 140 mM NaCl, 2.5 mM CaCl2, 2 mM MgCl2, 20 mM glucose and 10 mM HEPES, pH = 7.4. The pipette solution contained 133 mM potassium gluconate, 6 mM NaCl, 1 mM CaCl2, 0.7 mM MgCl2, 10 mM HEPES, 10 mM EGTA, pH = 7.2. Currents elicited by mephedrone 30 μM, were measured at room temperature (20–24°C) using an […] amplifier and pClamp 11.2 software (MDS Analytical Technologies). All the solutions perfused onto the cell were applied using a DAD-12 superfusion system and a 8-tube perfusion manifold (ALA Scientific Instruments), which allowed for rapid solution exchange. Current traces were filtered at 1 kHz and digitized at 10 kHz using a Digidata 1,550 (MDS Analytical Technologies). […] For the analysis, passive holding currents were subtracted, and the traces were filtered using a 100-Hz digital Gaussian low-pass filter.

[8] = molecular target: T3, SERT (Homo sapiens, UniProt P31645); experiment: Transporter electrophysiology (whole cell patch clamp), HEK293 cells stably expressing SERT; assay type: cell-based; conditions: compound applied at 30 µM, -60 mV
T3 construct: expressed in transfected cells
Description: as §1, §2

[9] = molecular target: T1, DAT; conditions: cited from earlier work
[10] = molecular target: T3, SERT; conditions: cited from earlier work
[11] = molecular target: T3, SERT; experiment: Uptake-inhibition of [3H]5-HT in HEK293 cells stably expressing human SERT; assay type: cell-based
[12] = molecular target: T2, human NET; conditions: QSAR data matrix; unit inferred; compounds not tested in this paper, source not given, presumably ref Mayer et al., 2019; cited from earlier work
[13] = test system: SERT; parameters: method as in Gregg et al., 2015; Mayer et al., 2016b; Mayer et al., 2019; conditions: ref Gregg et al., 2015, Mayer et al., 2016b, 2019; cited from earlier work
[14] = QSAR data matrix, from IC50 DAT
[15] = QSAR data matrix, from IC50 SERT
[16] = QSAR data matrix, unit inferred, compounds not tested in this paper, source not given, presumably ref Mayer et al., 2019, read-out: IC50 DAT
[17] = QSAR data matrix, unit inferred, compounds not tested in this paper, source not given, presumably ref Mayer et al., 2019, read-out: IC50 SERT
[18] = QSAR data matrix, from IC50 DAT, read-out: pIC50 DAT (converted)

T1 sequence (Q01959 whole entry): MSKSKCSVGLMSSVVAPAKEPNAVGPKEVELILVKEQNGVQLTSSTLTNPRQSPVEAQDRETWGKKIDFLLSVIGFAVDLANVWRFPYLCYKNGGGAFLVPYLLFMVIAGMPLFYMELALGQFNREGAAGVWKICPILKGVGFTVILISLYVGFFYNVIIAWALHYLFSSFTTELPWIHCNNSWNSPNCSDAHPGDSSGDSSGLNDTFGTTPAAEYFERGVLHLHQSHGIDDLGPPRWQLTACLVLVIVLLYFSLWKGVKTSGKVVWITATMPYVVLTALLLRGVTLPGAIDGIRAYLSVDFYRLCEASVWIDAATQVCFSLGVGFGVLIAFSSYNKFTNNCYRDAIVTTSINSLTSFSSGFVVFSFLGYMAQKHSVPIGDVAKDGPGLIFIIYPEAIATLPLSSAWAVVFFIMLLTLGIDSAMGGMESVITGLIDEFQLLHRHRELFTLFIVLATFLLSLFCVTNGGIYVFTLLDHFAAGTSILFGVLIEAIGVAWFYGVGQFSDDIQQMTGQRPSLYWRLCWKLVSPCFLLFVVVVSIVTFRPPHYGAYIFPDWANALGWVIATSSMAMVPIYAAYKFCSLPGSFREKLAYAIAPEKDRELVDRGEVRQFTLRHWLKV
T2 sequence (P23975 whole entry): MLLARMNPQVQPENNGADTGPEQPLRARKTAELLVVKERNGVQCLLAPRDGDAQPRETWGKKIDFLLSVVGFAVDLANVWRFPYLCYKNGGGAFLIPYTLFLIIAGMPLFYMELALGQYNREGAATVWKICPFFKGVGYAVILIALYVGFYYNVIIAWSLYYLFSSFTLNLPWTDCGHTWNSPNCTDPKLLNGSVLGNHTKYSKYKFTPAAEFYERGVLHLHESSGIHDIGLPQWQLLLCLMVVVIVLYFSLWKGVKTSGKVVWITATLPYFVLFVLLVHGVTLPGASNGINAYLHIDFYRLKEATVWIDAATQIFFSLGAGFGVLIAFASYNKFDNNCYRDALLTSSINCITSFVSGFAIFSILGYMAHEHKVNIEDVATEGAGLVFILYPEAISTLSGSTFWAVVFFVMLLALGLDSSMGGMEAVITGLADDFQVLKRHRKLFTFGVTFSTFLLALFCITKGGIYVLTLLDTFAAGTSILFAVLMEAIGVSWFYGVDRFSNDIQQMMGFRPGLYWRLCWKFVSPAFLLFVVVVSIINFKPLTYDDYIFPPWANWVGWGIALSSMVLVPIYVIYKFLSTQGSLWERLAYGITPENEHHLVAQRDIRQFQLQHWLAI
T3 sequence (P31645 whole entry): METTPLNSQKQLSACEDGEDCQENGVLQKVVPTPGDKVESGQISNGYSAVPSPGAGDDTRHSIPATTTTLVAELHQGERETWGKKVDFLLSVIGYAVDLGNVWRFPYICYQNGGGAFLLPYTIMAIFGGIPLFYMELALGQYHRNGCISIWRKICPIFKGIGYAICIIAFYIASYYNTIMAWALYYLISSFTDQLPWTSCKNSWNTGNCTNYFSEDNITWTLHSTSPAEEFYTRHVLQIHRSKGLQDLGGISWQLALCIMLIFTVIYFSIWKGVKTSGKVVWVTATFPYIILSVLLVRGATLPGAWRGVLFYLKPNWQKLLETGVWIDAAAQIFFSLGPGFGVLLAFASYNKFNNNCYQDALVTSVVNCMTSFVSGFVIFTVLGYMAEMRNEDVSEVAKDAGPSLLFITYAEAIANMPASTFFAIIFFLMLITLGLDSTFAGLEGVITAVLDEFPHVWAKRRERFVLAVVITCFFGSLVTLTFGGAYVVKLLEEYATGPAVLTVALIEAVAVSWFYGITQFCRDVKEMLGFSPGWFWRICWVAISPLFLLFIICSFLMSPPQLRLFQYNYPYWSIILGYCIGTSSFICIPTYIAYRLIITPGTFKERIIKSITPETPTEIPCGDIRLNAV

Cc1ccc(C(=O)C(C)N)cc1 (stereo not drawn) [4-MC, nor-mephedrone, reference compound]
detection in human urine sample [1]: detected
plasma level as % of the plasma mephedrone [2]: 25%

CC(N)C(=O)c1ccc(CO)cc1 (stereo not drawn) [4-OH-MC]
detection in human urine sample [1]: not found
relative abundance [3]: 0.1–0.2%
detection in rat urine ([3]; ref Meyer et al., 2010): could be detected in rat urine
detection in human urine [4]: not in human urine

CC(N)C(O)c1ccc(CO)cc1 (stereo not drawn) [dihydro-4-OH-MC]
detection in human urine sample [1]: not found
relative abundance [3]: 0.1–0.2%

CNC(C)C(O)c1ccc(C)cc1 (stereo not drawn) [dihydro-4-MMC, dihydro-mephedrone, reference compound]
detection in human urine sample [1]: did not find
plasma level as % of the plasma mephedrone [2]: 10%

CNC(C)C(=O)c1ccc(C)cc1 (stereo not drawn) [Mephedrone, reference compound]
Selectivity ratio DAT/SERT [5]: 2.90
Selectivity ratio NET/DAT [6]: 1.09
DAT-mediated current [7]: elicited both DAT- and SERT mediated currents
SERT-mediated current [8]: elicited both DAT- and SERT mediated currents
Detected in urine samples [1]: +
IC50 ([9]; read-out: IC50 (µM) DAT, mean (95% confidence interval), ref Niello et al. (2019)): 3.01 µM
IC50 ([10]; read-out: IC50 (µM) SERT, mean (95% confidence interval), ref Niello et al. (2019)): 8.74 µM
plasma concentrations ([2]; conversion of ng h/ml range): 0.090 to 1.25 µM·h

CN[C@@H](C)[C@H](O)c1ccc(C)cc1 [1R2S-MMC, reference compound]
pIC50 DAT [5, 14]: 4.68
pIC50 NET [6]: 4.41
pIC50 SERT [11, 15]: 4.49
IC50 [9, 16]: 21.1 µM
IC50 [12]: 39 µM
IC50 [10, 17]: 32.2 µM

CN[C@H](C)[C@H](O)c1ccc(C)cc1 [1R2R-MMC, reference compound]
pIC50 DAT [5, 14]: 4.85
pIC50 NET [6]: 4.41
pIC50 SERT [11, 15]: 3.52
IC50 [9, 16]: 14.1 µM
IC50 [12]: 39.1 µM
IC50 [10, 17]: 302 µM

CN[C@H](C)[C@@H](O)c1ccc(C)cc1 [1S2R-MMC, reference compound]
pIC50 DAT [5, 14]: 4.90
pIC50 NET [6]: 4.64
pIC50 SERT [11, 15]: 4.18
IC50 [9, 16]: 12.7 µM
IC50 [12]: 22.7 µM
IC50 [10, 17]: 65.6 µM

CN[C@@H](C)[C@@H](O)c1ccc(C)cc1 [1S2S-MMC, reference compound]
pIC50 DAT [5, 14]: 4.89
pIC50 NET [6]: 4.33
pIC50 SERT [11, 15]: 3.61
IC50 [9, 16]: 12.9 µM
IC50 [12]: 47.1 µM
IC50 [10, 17]: 248 µM

CN[C@@H](C)C(=O)c1ccc(C)cc1 [S-mephedrone, reference compound]
IC50 [5, 18]: 0.776 µM
IC50 [6]: 2.75 µM
IC50 ([11]; pIC50 SERT, QSAR data matrix, from IC50 SERT): 10.7 µM
IC50 ([10]; read-out: IC50 SERT, QSAR data matrix, unit inferred, compounds not tested in this paper, source not given, presumably ref Mayer et al., 2019): 10.7 µM
potency as releaser of SERT, times higher than R-mephedrone [13]: 40 times

Cc1ccc([C@@H](O)[C@H](C)N)cc1 [Dihydro-(R,S)-4-MC]
Selectivity ratio DAT/SERT [5]: 4.94
IC50 [5, 18]: 13.5 µM
IC50 ([5]; mean (95% confidence interval), non-linear regression, read-out: IC50 (µM) DAT): 13.5 µM
Selectivity ratio NET/DAT [6]: 0.42
IC50 ([6]; mean (95% confidence interval), non-linear regression, read-out: IC50 (µM) NET): 32.4 µM
IC50 ([11]; IC50 (µM) SERT, mean (95% confidence interval), non-linear regression): 66.9 µM
IC50 ([11]; IC50 SERT, QSAR data matrix, unit inferred): 66.9 µM
DAT-mediated current [7]: elicited only SERT-mediated currents
SERT-mediated current [8]: elicited only SERT-mediated currents
Detected in urine samples [1]: +

Cc1ccc(C(=O)[C@@H](C)N)cc1 [2R-MC, reference compound]
pIC50 DAT [5, 14]: 5.03
pIC50 NET [6]: 5.34
pIC50 SERT [11, 15]: 3.70
IC50 [9, 16]: 9.44 µM
IC50 [12]: 4.54 µM
IC50 [10, 17]: 200 µM

Cc1ccc(C(=O)[C@H](C)N)cc1 [2S-MC, reference compound]
pIC50 DAT [5, 14]: 5.06
pIC50 NET [6]: 5.42
pIC50 SERT [11, 15]: 4.96
IC50 [9, 16]: 8.72 µM
IC50 [12]: 3.84 µM
IC50 [10, 17]: 10.9 µM

From publication PMC8063026 (Frontiers in Pharmacology, 2021)
